Laboratory results published in PubChem BioAssay AID1919017 (Molecular Pharmacology Branch, DTP, NCI, 2023).
pIC50: −log10 of the molar value. “And” between values parts separate entries of the source, which are not always exact repeats. Equal entries are not always repeated.

System: SW1271 complex spheroids with HUVEC/MSC, growth, % test/control
Assay: Anticancer human tumor SW1271 cell line growth inhibition [AhR];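 note: spheroids exposed to agents for 7 days before readout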
Conditions: for viability, T/C: stronger effect = lower value
How it was run: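 Agents were dosed in half-log steps down from roughly clinical Cmax, or from 10 microM where Cmax was unknown, alone and with AhR antagonists. Read-out: percent test/control growth of tumor spheroids containing HUVEC and MSC stromal cells.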

[1] = curve of first compound, second compound 0.1 µM
[2] = curve of first compound, second compound 0.316 µM
[3] = curve of first compound, second compound 1 µM
[4] = curve of first compound, second compound 3.16 µM
[5] = curve of first compound, second compound 10 µM
[6] = second compound 0.1 µM, first compound 0.0316 µM
[7] = second compound 0.1 µM, first compound 0.1 µM
[8] = second compound 0.1 µM, first compound 0.316 µM
[9] = second compound 0.1 µM, first compound 1 µM
[10] = second compound 0.316 µM, first compound 0.0316 µM
[11] = second compound 0.316 µM, first compound 0.1 µM
[12] = second compound 0.316 µM, first compound 0.316 µM
[13] = second compound 0.316 µM, first compound 1 µM
[14] = second compound 1 µM, first compound 0.0316 µM
[15] = second compound 1 µM, first compound 0.1 µM
[16] = second compound 1 µM, first compound 0.316 µM
[17] = second compound 1 µM, first compound 1 µM
[18] = second compound 3.16 µM, first compound 0.0316 µM
[19] = second compound 3.16 µM, first compound 0.1 µM
[20] = second compound 3.16 µM, first compound 0.316 µM
[21] = second compound 3.16 µM, first compound 1 µM
[22] = second compound 10 µM, first compound 0.0316 µM
[23] = second compound 10 µM, first compound 0.1 µM
[24] = second compound 10 µM, first compound 0.316 µM
[25] = second compound 10 µM, first compound 1 µM

## Nc1ccccc1NC(=O)c1ccc(CNC(=O)OCc2cccnc2)cc1 + CC(CO)NC(=O)c1cc(-c2ccc(Cl)cc2)nn(-c2cnn(C)c2)c1=O
[1]
  pIC50: 5.98
[2]
  pIC50: 6.08
[3]
  pIC50: 6.17
[4]
  pIC50: 6.00
[5]
  pIC50: 6.53
[6]
  viability, T/C: 92.2%
[7]
  viability, T/C: 89.6%
[8]
  viability, T/C: 78.5%
[9]
  viability, T/C: 43%
Second compound 0.1 µM, first compound 3.16 µM
  viability, T/C: 34.8%
Second compound 0.1 µM, first compound 10 µM
  viability, T/C: 10.7%
[10]
  viability, T/C: 103%
[11]
  viability, T/C: 85.2%
[12]
  viability, T/C: 67.3%
[13]
  viability, T/C: 41.4%
Second compound 0.316 µM, first compound 3.16 µM
  viability, T/C: 35%
Second compound 0.316 µM, first compound 10 µM
  viability, T/C: 9.29%
[14]
  viability, T/C: 87.7%
[15]
  viability, T/C: 82%
[16]
  viability, T/C: 60.4%
[17]
  viability, T/C: 40.8%
Second compound 1 µM, first compound 3.16 µM
  viability, T/C: 30.2%
Second compound 1 µM, first compound 10 µM
  viability, T/C: 10.4%
[18]
  viability, T/C: 65.2%
[19]
  viability, T/C: 64.7%
[20]
  viability, T/C: 65.5%
[21]
  viability, T/C: 44.9%
Second compound 3.16 µM, first compound 3.16 µM
  viability, T/C: 34.5%
Second compound 3.16 µM, first compound 10 µM
  viability, T/C: 11%
[22]
  viability, T/C: 70.2%
[23]
  viability, T/C: 63%
[24]
  viability, T/C: 43.5%
[25]
  viability, T/C: 43.6%
Second compound 10 µM, first compound 3.16 µM
  viability, T/C: 19%
Second compound 10 µM, first compound 10 µM
  viability, T/C: 11.4%

## CC1COCCN1c1cc(-c2ccnn2C)c2ccnc(-c3ccn[nH]3)c2n1 (configuration not stated) + CC(CO)NC(=O)c1cc(-c2ccc(Cl)cc2)nn(-c2cnn(C)c2)c1=O
[1]
  pIC50: 6.04
[2]
  pIC50: 6.06
[3]
  pIC50: < 6.00
[4]
  pIC50: 6.16
[5]
  pIC50: 6.27
Second compound 0.1 µM, first compound 0.00316 µM
  viability, T/C: 102%
Second compound 0.1 µM, first compound 0.01 µM
  viability, T/C: 97.5%
[6]
  viability, T/C: 94.4%
[7]
  viability, T/C: 82.1%
[8]
  viability, T/C: 67.8%
[9]
  viability, T/C: 48.5%
Second compound 0.316 µM, first compound 0.00316 µM
  viability, T/C: 92.5%
Second compound 0.316 µM, first compound 0.01 µM
  viability, T/C: 96.1%
[10]
  viability, T/C: 81.7%
[11]
  viability, T/C: 84.3%
[12]
  viability, T/C: 70%
[13]
  viability, T/C: 46.8%
Second compound 1 µM, first compound 0.00316 µM
  viability, T/C: 110%
Second compound 1 µM, first compound 0.01 µM
  viability, T/C: 98.2%
[14]
  viability, T/C: 86.7%
[15]
  viability, T/C: 80.7%
[16]
  viability, T/C: 65.7%
[17]
  viability, T/C: 49.1%
Second compound 3.16 µM, first compound 0.00316 µM
  viability, T/C: 84.5%
Second compound 3.16 µM, first compound 0.01 µM
  viability, T/C: 79.2%
[18]
  viability, T/C: 75.5%
[19]
  viability, T/C: 75.9%
[20]
  viability, T/C: 57.2%
[21]
  viability, T/C: 45.6%
Second compound 10 µM, first compound 0.00316 µM
  viability, T/C: 88.9%
Second compound 10 µM, first compound 0.01 µM
  viability, T/C: 75%
[22]
  viability, T/C: 68.5%
[23]
  viability, T/C: 66.6%
[24]
  viability, T/C: 47.9%
[25]
  viability, T/C: 47.6%

## COc1ccc([C@@H](O)c2cc(-c3ncnc4cc(N5CCOCC5)ccc34)c(F)cc2Cl)nn1
Compound 0.0316 µM
  viability, T/C: 80.5% and 93.2% and 107%
Compound 0.1 µM
  viability, T/C: 96.4% and 73% and 85.2%
Compound 0.316 µM
  viability, T/C: 76.1% and 70.2% and 81%
Compound 1 µM
  viability, T/C: 62.3% and 61.5% and 59.7%
Compound 3.16 µM
  viability, T/C: 45.4% and 57% and 39.5%
Compound 10 µM
  viability, T/C: 25.2% and 27.9% and 28.6%
Curve of compound
  pIC50: 5.66 and 5.56 and 5.72

## CCN(c1cc(-c2ccc(CN3CCOCC3)cc2)cc(C(=O)NCc2c(C)cc(C)[nH]c2=O)c1C)C1CCOCC1 + CC(CO)NC(=O)c1cc(-c2ccc(Cl)cc2)nn(-c2cnn(C)c2)c1=O
[1]
  pIC50: < 5.52
[2]
  pIC50: < 5.52
[3]
  pIC50: < 5.52
[4]
  pIC50: < 5.52
[5]
  pIC50: < 5.52
Second compound 0.1 µM, first compound 0.00949 µM
  viability, T/C: 122%
Second compound 0.1 µM, first compound 0.03 µM
  viability, T/C: 117%
Second compound 0.1 µM, first compound 0.0949 µM
  viability, T/C: 106%
Second compound 0.1 µM, first compound 0.3 µM
  viability, T/C: 97.2%
Second compound 0.1 µM, first compound 0.949 µM
  viability, T/C: 102%
Second compound 0.1 µM, first compound 3 µM
  viability, T/C: 91.8%
Second compound 0.316 µM, first compound 0.00949 µM
  viability, T/C: 101%
Second compound 0.316 µM, first compound 0.03 µM
  viability, T/C: 108%
Second compound 0.316 µM, first compound 0.0949 µM
  viability, T/C: 120%
Second compound 0.316 µM, first compound 0.3 µM
  viability, T/C: 113%
Second compound 0.316 µM, first compound 0.949 µM
  viability, T/C: 110%
Second compound 0.316 µM, first compound 3 µM
  viability, T/C: 112%
Second compound 1 µM, first compound 0.00949 µM
  viability, T/C: 86.6%
Second compound 1 µM, first compound 0.03 µM
  viability, T/C: 105%
Second compound 1 µM, first compound 0.0949 µM
  viability, T/C: 119%
Second compound 1 µM, first compound 0.3 µM
  viability, T/C: 94.5%
Second compound 1 µM, first compound 0.949 µM
  viability, T/C: 105%
Second compound 1 µM, first compound 3 µM
  viability, T/C: 110%
Second compound 3.16 µM, first compound 0.00949 µM
  viability, T/C: 91.9%
Second compound 3.16 µM, first compound 0.03 µM
  viability, T/C: 88%
Second compound 3.16 µM, first compound 0.0949 µM
  viability, T/C: 103%
Second compound 3.16 µM, first compound 0.3 µM
  viability, T/C: 89.3%
Second compound 3.16 µM, first compound 0.949 µM
  viability, T/C: 106%
Second compound 3.16 µM, first compound 3 µM
  viability, T/C: 90.3%
Second compound 10 µM, first compound 0.00949 µM
  viability, T/C: 91.7%
Second compound 10 µM, first compound 0.03 µM
  viability, T/C: 94.5%
Second compound 10 µM, first compound 0.0949 µM
  viability, T/C: 81.3%
Second compound 10 µM, first compound 0.3 µM
  viability, T/C: 84.9%
Second compound 10 µM, first compound 0.949 µM
  viability, T/C: 74.1%
Second compound 10 µM, first compound 3 µM
  viability, T/C: 79.4%
